Values after ≈ are worked out from the molar mass of the structure shown.
Test system: Histophilus somni
Assay: minimum inhibitory concentration (MIC)
Description: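 Broth microdilution MIC (Sensititre BOPO7F bovine plate, CLSI methods) of 19 antimicrobials against field isolates of P. multocida, M. haemolytica, H. somni (deep nasopharyngeal swabs) and E. coli, Enterococcus spp. (rectal swabs) from weaned dairy heifers. Incubation 16-24 h at 35 C. MIC is the lowest concentration preventing visible growth. Values with <= or > lie at the tested range limits. Trimethoprim-sulfamethoxazole is given as the trimethoprim component of a 1:19 mixture.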

CC[C@H]1OC(=O)C[C@@H](O)[C@H](C)[C@@H](O[C@@H]2O[C@H](C)[C@@H](O)[C@H](N(C)C)[C@H]2O)[C@@H](CCN2C[C@H](C)C[C@H](C)C2)C[C@@H](C)C(=O)/C=C/C(C)=C/[C@@H]1CO[C@@H]1O[C@H](C)[C@@H](O)[C@@H](OC)[C@H]1OC [Tilmicosin]
Settings	minimum inhibitory concentration [µg/mL]
isolate (source animal id): 3	8 (≈ 9.2 µM)
isolate (source animal id): 4	≤ 2
isolate (source animal id): 7	≤ 2
isolate (source animal id): 14	≤ 2
isolate (source animal id): 15	8 (≈ 9.2 µM)
isolate (source animal id): 17	≤ 2
isolate (source animal id): 18	4 (≈ 4.6 µM)
isolate (source animal id): 20	≤ 2
isolate (source animal id): 23	4 (≈ 4.6 µM)
isolate (source animal id): 45	8 (≈ 9.2 µM)
isolate (source animal id): 53	8 (≈ 9.2 µM)
isolate (source animal id): 83	4 (≈ 4.6 µM)
isolate (source animal id): 88	4 (≈ 4.6 µM)
isolate (source animal id): 92	8 (≈ 9.2 µM)
isolate (source animal id): 93	4 (≈ 4.6 µM)
isolate (source animal id): 99	4 (≈ 4.6 µM)
isolate (source animal id): 100	8 (≈ 9.2 µM)
isolate (source animal id): 105	4 (≈ 4.6 µM)
isolate (source animal id): 107	4 (≈ 4.6 µM)
isolate (source animal id): 108	4 (≈ 4.6 µM)
isolate (source animal id): 109	8 (≈ 9.2 µM)
isolate (source animal id): 110	8 (≈ 9.2 µM)
isolate (source animal id): 117	4 (≈ 4.6 µM)
isolate (source animal id): 121	4 (≈ 4.6 µM)
isolate (source animal id): 123	8 (≈ 9.2 µM)
isolate (source animal id): 124	4 (≈ 4.6 µM)
isolate (source animal id): 127	4 (≈ 4.6 µM)
isolate (source animal id): 128	4 (≈ 4.6 µM)
isolate (source animal id): 130	8 (≈ 9.2 µM)
isolate (source animal id): 132	4 (≈ 4.6 µM)
isolate (source animal id): 135	4 (≈ 4.6 µM)
isolate (source animal id): 140	4 (≈ 4.6 µM)
isolate (source animal id): 141	4 (≈ 4.6 µM)
isolate (source animal id): 142	> 16
isolate (source animal id): 144	8 (≈ 9.2 µM)
isolate (source animal id): 146	8 (≈ 9.2 µM)
isolate (source animal id): 147	> 16
isolate (source animal id): 151	4 (≈ 4.6 µM)
isolate (source animal id): 153	16 (≈ 18.4 µM)
isolate (source animal id): 154	> 16
isolate (source animal id): 156	> 16
isolate (source animal id): 157	16 (≈ 18.4 µM)
isolate (source animal id): 176	16 (≈ 18.4 µM)
isolate (source animal id): 183	8 (≈ 9.2 µM)
isolate (source animal id): 186	8 (≈ 9.2 µM)
isolate (source animal id): 196	8 (≈ 9.2 µM)
isolate (source animal id): 198	8 (≈ 9.2 µM)
isolate (source animal id): 200	8 (≈ 9.2 µM)
isolate (source animal id): 206	8 (≈ 9.2 µM)
isolate (source animal id): 208	8 (≈ 9.2 µM)
isolate (source animal id): 210	4 (≈ 4.6 µM)
isolate (source animal id): 212	≤ 2
isolate (source animal id): 215	8 (≈ 9.2 µM)
isolate (source animal id): 216	16 (≈ 18.4 µM)
isolate (source animal id): 218	8 (≈ 9.2 µM)
isolate (source animal id): 219	8 (≈ 9.2 µM)
isolate (source animal id): 224	8 (≈ 9.2 µM)
isolate (source animal id): 228	8 (≈ 9.2 µM)
isolate (source animal id): 230	16 (≈ 18.4 µM)
isolate (source animal id): 233	4 (≈ 4.6 µM)
isolate (source animal id): 238	≤ 2
isolate (source animal id): 239	8 (≈ 9.2 µM)
isolate (source animal id): 241	8 (≈ 9.2 µM)
isolate (source animal id): 242	8 (≈ 9.2 µM)
isolate (source animal id): 243	8 (≈ 9.2 µM)
isolate (source animal id): 245	≤ 2
isolate (source animal id): 246	8 (≈ 9.2 µM)
isolate (source animal id): 247	16 (≈ 18.4 µM)
isolate (source animal id): 248	≤ 2
isolate (source animal id): 250	8 (≈ 9.2 µM)
isolate (source animal id): 251	8 (≈ 9.2 µM)
isolate (source animal id): 252	16 (≈ 18.4 µM)
isolate (source animal id): 254	8 (≈ 9.2 µM)
isolate (source animal id): 258	4 (≈ 4.6 µM)
isolate (source animal id): 259	4 (≈ 4.6 µM)
isolate (source animal id): 262	≤ 2
isolate (source animal id): 264	≤ 2
isolate (source animal id): 265	≤ 2
isolate (source animal id): 266	4 (≈ 4.6 µM)
isolate (source animal id): 267	4 (≈ 4.6 µM)
isolate (source animal id): 269	4 (≈ 4.6 µM)
isolate (source animal id): 271	4 (≈ 4.6 µM)
isolate (source animal id): 272	≤ 2
isolate (source animal id): 274	≤ 2
isolate (source animal id): 276	≤ 2
isolate (source animal id): 278	≤ 2
isolate (source animal id): 280	≤ 2
isolate (source animal id): 281	8 (≈ 9.2 µM)
isolate (source animal id): 283	4 (≈ 4.6 µM)
isolate (source animal id): 288	8 (≈ 9.2 µM)
isolate (source animal id): 291	4 (≈ 4.6 µM)
isolate (source animal id): 292	8 (≈ 9.2 µM)
isolate (source animal id): 296	4 (≈ 4.6 µM)
isolate (source animal id): 306	8 (≈ 9.2 µM)
isolate (source animal id): 336	8 (≈ 9.2 µM)
isolate (source animal id): 337	8 (≈ 9.2 µM)
isolate (source animal id): 341	8 (≈ 9.2 µM)

CCCNC[C@]1(O)[C@H](C)O[C@@H](O[C@H]2[C@H](C)[C@@H](O[C@@H]3O[C@H](C)C[C@H](N(C)C)[C@H]3O)[C@](C)(O)C[C@@H](C)CN[C@H](C)[C@@H](O)[C@](C)(O)[C@@H](CC)OC(=O)[C@@H]2C)C[C@@]1(C)OC [Tulathromycin]
Settings	minimum inhibitory concentration [µg/mL]
isolate (source animal id): 3	≤ 8
isolate (source animal id): 4	≤ 8
isolate (source animal id): 7	≤ 8
isolate (source animal id): 14	≤ 8
isolate (source animal id): 15	≤ 8
isolate (source animal id): 17	≤ 8
isolate (source animal id): 18	≤ 8
isolate (source animal id): 20	≤ 8
isolate (source animal id): 23	≤ 8
isolate (source animal id): 45	≤ 8
isolate (source animal id): 53	≤ 8
isolate (source animal id): 83	≤ 8
isolate (source animal id): 88	≤ 8
isolate (source animal id): 92	16 (≈ 19.8 µM)
isolate (source animal id): 93	≤ 8
isolate (source animal id): 99	≤ 8
isolate (source animal id): 100	16 (≈ 19.8 µM)
isolate (source animal id): 105	≤ 8
isolate (source animal id): 107	≤ 8
isolate (source animal id): 108	≤ 8
isolate (source animal id): 109	≤ 8
isolate (source animal id): 110	16 (≈ 19.8 µM)
isolate (source animal id): 117	≤ 8
isolate (source animal id): 121	≤ 8
isolate (source animal id): 123	≤ 8
isolate (source animal id): 124	≤ 8
isolate (source animal id): 127	≤ 8
isolate (source animal id): 128	≤ 8
isolate (source animal id): 130	16 (≈ 19.8 µM)
isolate (source animal id): 132	≤ 8
isolate (source animal id): 135	≤ 8
isolate (source animal id): 140	≤ 8
isolate (source animal id): 141	≤ 8
isolate (source animal id): 142	> 64
isolate (source animal id): 144	≤ 8
isolate (source animal id): 146	16 (≈ 19.8 µM)
isolate (source animal id): 147	> 64
isolate (source animal id): 151	≤ 8
isolate (source animal id): 153	16 (≈ 19.8 µM)
isolate (source animal id): 154	> 64
isolate (source animal id): 156	> 64
isolate (source animal id): 157	16 (≈ 19.8 µM)
isolate (source animal id): 176	≤ 8
isolate (source animal id): 183	≤ 8
isolate (source animal id): 186	≤ 8
isolate (source animal id): 196	≤ 8
isolate (source animal id): 198	≤ 8
isolate (source animal id): 200	16 (≈ 19.8 µM)
isolate (source animal id): 206	≤ 8
isolate (source animal id): 208	≤ 8
isolate (source animal id): 210	≤ 8
isolate (source animal id): 212	≤ 8
isolate (source animal id): 215	≤ 8
isolate (source animal id): 216	16 (≈ 19.8 µM)
isolate (source animal id): 218	≤ 8
isolate (source animal id): 219	≤ 8
isolate (source animal id): 224	≤ 8
isolate (source animal id): 228	≤ 8
isolate (source animal id): 230	≤ 8
isolate (source animal id): 233	≤ 8
isolate (source animal id): 238	≤ 8
isolate (source animal id): 239	≤ 8
isolate (source animal id): 241	≤ 8
isolate (source animal id): 242	≤ 8
isolate (source animal id): 243	≤ 8
isolate (source animal id): 245	≤ 8
isolate (source animal id): 246	≤ 8
isolate (source animal id): 247	≤ 8
isolate (source animal id): 248	≤ 8
isolate (source animal id): 250	≤ 8
isolate (source animal id): 251	≤ 8
isolate (source animal id): 252	≤ 8
isolate (source animal id): 254	≤ 8
isolate (source animal id): 258	≤ 8
isolate (source animal id): 259	≤ 8
isolate (source animal id): 262	≤ 8
isolate (source animal id): 264	≤ 8
isolate (source animal id): 265	≤ 8
isolate (source animal id): 266	≤ 8
isolate (source animal id): 267	≤ 8
isolate (source animal id): 269	≤ 8
isolate (source animal id): 271	≤ 8
isolate (source animal id): 272	≤ 8
isolate (source animal id): 274	≤ 8
isolate (source animal id): 276	≤ 8
isolate (source animal id): 278	≤ 8
isolate (source animal id): 280	≤ 8
isolate (source animal id): 281	≤ 8
isolate (source animal id): 283	≤ 8
isolate (source animal id): 288	≤ 8
isolate (source animal id): 291	≤ 8
isolate (source animal id): 292	≤ 8
isolate (source animal id): 296	≤ 8
isolate (source animal id): 306	≤ 8
isolate (source animal id): 336	16 (≈ 19.8 µM)
isolate (source animal id): 337	16 (≈ 19.8 µM)
isolate (source animal id): 341	≤ 8
